Consider seven compounds from patent publication US8569247B2 (priority 2009, dated 2013).

Data set [1] can be described thus: Content of test solution before and after incubation (stability under CaCo-2 test conditions). The class given is in vitro ADME. Conditions: for Area-% Fingerprint of test solution after 120 minutes / Area-% Fingerprint of test solution prior to incubation: Gardenia extract test solution. The protocol: (§1) CaCo-2 cells were incubated with 10 mg Gardenia extract and 10 mg crocetin/100 mL medium. The test compounds were dissolved in methanol and then diluted with incubation medium. Incubations were performed at 37° C. for 30, 60 and 120 minutes.
The content of crocetin related esters and crocetin in the sample used for incubation testing was determined.
Table 7 provides the content of test solution prior to incubation:
Table 8 provides the corresponding data for the test solution obtained after 120 minutes.
(§2) An appropriate amount of standard was transferred into a 10 mL flask and dissolved in 3 mL methanol and filled to the mark with water. Dilutions were prepared in mobile phase.
(§3) Quantification was performed by external standardization after linear regression analysis.

The subject of data set [2] is CaCo-2 cells. Kind of data set: Cellular uptake of crocin and crocetin in CaCo-2 cells (cellular content). The note with it: for HPLC peaks in the cells: 10 mg Gardenia extract/100 mL medium; for Crocetin (HPLC) concentration in the cells: 10 mg crocetin/100 mL medium. It is filed as in vitro ADME. As for the experimental part: as §1
Cells were grown in 75 cm^2 culture-flasks (T75) and sub-cultured after one week (every other day washed with PBS buffer, removed with trypsin and transferred to a new culture flask).
The cells were washed with PBS buffer, incubated with 4 ml medium containing the suspended samples for 30, 60 or 120 minutes.
After the corresponding incubation time, the cells were washed with PBS buffer/MeOH=70/30 and removed using 1 ml of MeOH. Cells were sonicated 3 times for 30 seconds, centrifuged for 10 min and the pellets were discarded. The supernatant was used as sample for HPLC and UV/VIS-analysis.
as §2, §3

For data set [3], the target named is human acetylcholinesterase (Homo sapiens, UniProt P22303). Kind of data set: biochemical. It is filed as biochemical. Conditions: for inhibition at 500 µg/mL: read-out: Inhibition of AChE activity %; for activity at 500 µg/mL: read-out: AChE activity %. The protocol:
Inhibitor solution: 10 mg of the corresponding samples were respectively dissolved in 1 ml methanol.
Chromogen solution: 0.1 M Sodium phosphate buffer (pH=8, NaOH) was mixed with solution A at a ratio of 30:1.
Solution A: 39.6 mg 5,5′-dithio-bis[2-nitrobenzoic acid] and 15.0 mg NaHCO3 were weighed into a 10 ml flask and filled to the mark with 0.1 M Sodium-phosphate buffer (pH=7, NaOH).
Enzyme solution: A solution of human acetylcholinesterase containing 70 IU enzyme activity/ml H2O was prepared.
Substrate solution: 115.7 mg acetylthiocholine-iodide was weighed into a 10 ml flask and filled to the mark with H2O.
10 μl inhibitor solution was mixed with 185 μl chromogen solution and 10 μl enzyme solution. The solution was incubated for 10 minutes at room temperature with shaking. […] substrate solution was added and the increase in absorption at 412 nm was recorded until no more increase was observed (3-5 minutes).

Data set [4] relates to CaCo-2 cells. Kind of data set: CaCo-2 uptake trial extended with gardenia hydrolysate (%-uptake by HPLC/UV peak areas). The class given is in vitro ADME. The note with it: sample 20 mg/100 ml; proportion on overall absorption.
Protocol: The tests were performed in replicate and the results are expressed as %-uptake based on peak areas measured by HPLC/UV.
For data set [5] the following is noted: stated as known property; cited from earlier work.
Data set [6] in a line: Solubility in water / aqueous alkaline solution. It is filed as physicochemical. Conditions: found by the applicant.
The mark [7] stands for this setting: after 120 minutes incubation at 37° C.
[8] abbreviates: sample 0.50 mg/ml, Neg Control = 0.0.
The mark [9] stands for this setting: sample 0.50 mg/ml, Neg Control = 100.0.

Like-named read-outs stand apart in the source and are kept apart here.

Chain of human acetylcholinesterase (P22303 32-614): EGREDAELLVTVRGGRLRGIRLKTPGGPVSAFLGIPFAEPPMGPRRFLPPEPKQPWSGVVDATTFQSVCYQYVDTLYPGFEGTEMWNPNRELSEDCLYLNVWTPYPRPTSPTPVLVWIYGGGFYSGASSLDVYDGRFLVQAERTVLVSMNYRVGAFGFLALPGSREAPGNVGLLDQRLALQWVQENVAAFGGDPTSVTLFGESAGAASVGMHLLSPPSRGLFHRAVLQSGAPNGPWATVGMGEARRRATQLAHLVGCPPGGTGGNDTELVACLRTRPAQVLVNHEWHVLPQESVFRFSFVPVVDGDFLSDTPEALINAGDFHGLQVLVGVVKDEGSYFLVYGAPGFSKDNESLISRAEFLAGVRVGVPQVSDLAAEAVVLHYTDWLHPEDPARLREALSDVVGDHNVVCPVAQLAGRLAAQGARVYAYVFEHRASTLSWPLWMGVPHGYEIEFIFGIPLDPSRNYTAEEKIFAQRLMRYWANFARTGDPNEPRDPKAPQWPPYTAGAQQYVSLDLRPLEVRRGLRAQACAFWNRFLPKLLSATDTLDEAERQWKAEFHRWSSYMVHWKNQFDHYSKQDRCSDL

Regarding `CC(=C/C=C/C=C(C)/C=C/C=C(/C)C(=O)O[C@@H]1O[C@H](CO[C@@H]2O[C@H](CO)[C@@H](O)[C@H](O)[C@H]2O)[C@@H](O)[C@H](O)[C@H]1O)/C=C/C=C(\C)C(=O)O[C@@H]1O[C@H](CO[C@@H]2O[C@H](CO)[C@@H](O)[C@H](O)[C@H]2O)[C@@H](O)[C@H](O)[C@H]1O` (relative stereo) [DGCC, digentobiosyl-(cis)crocetin], the “Area-% Fingerprint of test solution after 120 minutes” value in data set [1] (setting [7]) came out at 15.2 Area-%. Besides, the “Area-% Fingerprint of test solution prior to incubation” value (“Area-% Fingerprint … to incubation” for short) in data set [1] (prior to incubation) is listed as 16.6 Area-%. Further, the “HPLC peaks in the cells” value in data set [2] (time 0 min), in data set [2] (time 30 min), in data set [2] (time 60 min) and in data set [2] (time 120 min) was “not detected” each time.

Regarding `CC(/C=C/C=C(\C)C(=O)O[C@@H]1O[C@H](CO[C@@H]2O[C@H](CO)[C@@H](O)[C@H](O)[C@H]2O)[C@@H](O)[C@H](O)[C@H]1O)=C\C=C\C=C(C)\C=C\C=C(/C)C(=O)O[C@@H]1O[C@H](CO[C@@H]2O[C@H](CO)[C@@H](O)[C@H](O)[C@H]2O)[C@@H](O)[C@H](O)[C@H]1O` (relative stereo) [DGTC, digentobiosyl-(trans)crocetin], the “Area-% Fingerprint of test solution after 120 minutes” value in data set [1] (setting [7]) is 43.4 Area-%. The “Area-% Fingerprint … to incubation” value in data set [1] (prior to incubation) is on record as 45.3 Area-%. Further, the “HPLC peaks in the cells” value in data set [2] (time 0 min), in data set [2] (time 30 min), in data set [2] (time 60 min) and in data set [2] (time 120 min) was “not detected” in each case.

Turning to `CC(/C=C/C=C(\C)C(=O)O)=C\C=C\C=C(C)\C=C\C=C(/C)C(=O)O[C@@H]1O[C@H](CO[C@@H]2O[C@H](CO)[C@@H](O)[C@H](O)[C@H]2O)[C@@H](O)[C@H](O)[C@H]1O` (relative stereo) [GTC, gentobisyl-(trans)crocetin], in data set [1] (setting [7]), the “Area-% Fingerprint of test solution after 120 minutes” value is listed as 10.3 Area-%. The “Area-% Fingerprint … to incubation” value in data set [1] (prior to incubation) worked out at 9.7 Area-%. Moreover, the “HPLC peaks in the cells” value in data set [2] (time 0 min), in data set [2] (time 30 min), in data set [2] (time 60 min) and in data set [2] (time 120 min) was “not detected” throughout.

For the compound `CC(/C=C/C=C(\C)C(=O)O)=C\C=C\C=C(C)\C=C\C=C(/C)C(=O)O` [Crocetin, 8,8′-Diapo-ψ,ψ-carotenedioic acid, reference compound], the inhibition (in general, the drop in the measured response relative to a control, in per cent) at 500 µg/mL in data set [3] (setting [8]) came out at 7.5%. For the same compound, the activity at 500 µg/mL in data set [3] (setting [9]) was found to be 92.5%. For the same compound, in data set [1] (setting [7]), the “content of test solution after 120 minutes” value came to 9.77 mg/100 ml. In data set [1] (prior to incubation, incubation medium), the “content of test solution prior to incubation” value amounted to 9.82 mg/100 ml. Besides, the “Crocetin (HPLC) concentration in the cells” value in data set [2] (time 0 min), in data set [2] (time 30 min), in data set [2] (time 60 min) and in data set [2] (time 120 min) was “BLD (BLD = <0.01 mg/100 ml)” each time. In data set [4], the “% uptake of crocetin” value worked out at 0.53%. In addition, in data set [5], the “solubility in aqueous alkaline solution” value is on record as “soluble”. For the same compound, in data set [5], the solubility in water result is “insoluble in water”.

On to `CC(/C=C/C=C(\C)C(=O)O[C@@H]1O[C@H](CO[C@@H]2O[C@H](CO)[C@@H](O)[C@H](O)[C@H]2O)[C@@H](O)[C@H](O)[C@H]1O)=C\C=C\C=C(C)\C=C\C=C(/C)C(=O)O[C@@H]1O[C@H](CO[C@@H]2O[C@H](CO)[C@@H](O)[C@H](O)[C@H]2O)[C@@H](O)[C@H](O)[C@H]1O` [Crocin, di-gentiobiose ester of crocetin], for which, in data set [3], the activity at 500 µg/mL was 52.7% and the inhibition at 500 µg/mL stood at 47.3%. Also, the solubility in water entry in data set [5] is listed as “very good water-solubility”.

In the case of `CCOC(=O)CCC(=O)O` [Monoester], the “Inhibition of AChE activity %” value in data set [3] (setting [8]) is 89.2%. This compound also showed an AChE activity % in data set [3] (setting [9]) of 10.8%. The solubility in water result in data set [6] is on record as “good solubility in water”.

With “neapolitanosyl-glucosyl-(trans)crocetin [NGTC]”, the “Area-% Fingerprint of test solution after 120 minutes” value in data set [1] (setting [7]) is 17.9 Area-%. Further, the “Area-% Fingerprint … to incubation” value in data set [1] (prior to incubation) worked out at 18.1 Area-%. For the same compound, the “HPLC peaks in the cells” value in data set [2] (time 0 min), in data set [2] (time 30 min), in data set [2] (time 60 min) and in data set [2] (time 120 min) was “not detected” throughout.
